Bounds are passed on as bounds.

In assay [1] the target is T1, Akt2 (Homo sapiens, UniProt P31751).
T1 construct: unspecified tag, removed (detagged) (cleaved yes); purchased SignalChem and Proteros (Akt2); Merck Millipore (PDK1) 14-452 (PDK1); none given for Akt2
Kind of assay: Akt activation assay (PDK1-mediated activation, LANCE Ultra crosstide TR-FRET), Akt2. In kind it is biochemical. To be noted: read-out: Biological Assay 1 IC50 (nM) Akt2. An outline of the steps: (§1)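 Two-step cascade format: Akt1, Akt2 or Akt3 phosphorylates Ulight-crosstide (100 nM) only after activation by 5 nM PDK1 in presence of PtdIns(3,4,5)P3 vesicles and 100 μM ATP. Product quantified by Eu-antibody TR-FRET after 30 min reaction.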
In general terms: Time-resolved FRET reads energy transfer from a long-lived donor to a nearby acceptor.

Assay [2] addresses T2, Akt3 (Homo sapiens, UniProt Q9Y243).
T2 construct: unspecified tag, removed (detagged) (cleaved yes); purchased SignalChem and Proteros (Akt3); Merck Millipore (PDK1) 14-452 (PDK1); none given for Akt3
Kind of assay: Akt activation assay (PDK1-mediated activation, LANCE Ultra crosstide TR-FRET), Akt3. The assay is classed as biochemical. The settings on record: read-out: Biological Assay 1 IC50 (nM) Akt3. An outline of the steps: as §1

Assay [3] concerns the target T3, p-Akt1 in LNCaP cells (Homo sapiens, UniProt P31749).
T3 construct: SureFire assays to detect cellular p-Akt1, p-Akt2 and p-Akt3 levels in WM115 cells (Akt2/3) and LNCaP cells (Akt1); endogenous in cells; host or cells: LNCaP (ECACC 89110211)
Kind of assay: Phospho-Akt cellular SureFire assay, p-Akt1 in LNCaP cells. To be noted: read-out: Biological Assay 2 IC50 (nM) Akt1 LNCaP. The assay is classed as cell-based. An excerpt:
Biological Assay 2: Phospho-Akt (p-Akt) Cellular SureFire Assays
The following describes SureFire assays to detect cellular p-Akt1, p-Akt2 and p-Akt3 levels in WM115 cells (Akt2/3) and LNCaP cells (Akt1). In the case of Akt2 and Akt3, Streptavidin-coated donor beads capture a biotinylated anti-mouse antibody that in turn recognises a mouse total Akt antibody which is specific to each isoform. The protein A-conjugated acceptor beads capture an antibody that recognises the phosphoprotein. Similarly in the Akt1 kit, the donor and acceptor beads are used to capture each antibody pair consisting of an antibody that specifically recognises Akt1 as well as an antibody that recognises the phosphoprotein. In each case, close proximity of the beads allows energy transfer from donor to acceptor.
AlphaScreen® SureFire™ Phospho-Akt1 (pThr308) Kit from Perkin Elmer (TGRA2S10K)
LNCaP cells (ECACC, 89110211) cultured in RPMI-1640 culture media (Fisher, 10665193) supplemented with 2 mM L-glutamine, 1% sodium pyruvate and 10% FBS
Cell treatment: 1×10^5 WM115 cells or 5×10^4 LNCaP cells were seeded into each well of a 96 well poly-D-Lysine coated tissue culture plate and incubated overnight at 37° C.+5% CO2. Media was removed from cells and replaced with assay buffer consisting of the full culture media described above but with 0.1% FBS instead of 10% FBS. Only WM115 cells were stimulated at 37° C.+5% CO2 for 10 min with 5 μL insulin at a final concentration of 100 nM. Cells were incubated with 5 μL of test compound at a final DMSO concentration of 0.3% for 15 min at 37° C.+5% CO2. Cell lysis was carried out according to kit instructions.
Assay format (performed in subdued lighting): 4 μL cell lysate and 5 μL reaction buffer were incubated together in the dark at room temperature for 2 h. Reaction buffer was supplemented with a 1/5 dilution of activation buffer, a 1/50 dilution of acceptor beads and in the case of the custom kits, antibodies were added at dilutions of 1/20,000 for Akt2 and 1/2,000 for Akt3.
2 μL dilution buffer, supplemented with a 1/20 dilution of donor beads was added to each well and incubated for a further 2 h. Plates were read with the EnVision® Multilabel Plate Reader and using the AlphaScreen settings. Compound IC50 was determined using a 4-parameter equation.

In assay [4] the target is T4, p-Akt2 in WM115 cells (Homo sapiens, UniProt P31751).
T4 construct: SureFire assays to detect cellular p-Akt1, p-Akt2 and p-Akt3 levels in WM115 cells (Akt2/3) and LNCaP cells (Akt1); endogenous in cells; host or cells: WM115 (ECACC 91061232), insulin-stimulated
T4 sequence (P31751 whole entry): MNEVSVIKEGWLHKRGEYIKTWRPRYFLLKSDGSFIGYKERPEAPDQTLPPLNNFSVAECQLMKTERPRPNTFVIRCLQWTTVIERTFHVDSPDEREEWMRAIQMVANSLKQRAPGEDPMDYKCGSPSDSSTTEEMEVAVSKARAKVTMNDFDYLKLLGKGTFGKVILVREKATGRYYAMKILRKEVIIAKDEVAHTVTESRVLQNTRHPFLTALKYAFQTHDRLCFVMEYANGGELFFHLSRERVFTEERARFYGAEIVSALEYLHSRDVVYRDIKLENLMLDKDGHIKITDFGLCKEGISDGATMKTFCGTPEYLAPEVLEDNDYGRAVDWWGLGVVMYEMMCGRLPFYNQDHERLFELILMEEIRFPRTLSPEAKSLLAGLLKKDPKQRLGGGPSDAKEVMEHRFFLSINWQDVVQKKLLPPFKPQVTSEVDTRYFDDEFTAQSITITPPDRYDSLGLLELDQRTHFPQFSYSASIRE
Description: Phospho-Akt cellular SureFire assay, p-Akt2 in WM115 cells. The assay is classed as cell-based. The settings on record: insulin stimulated, read-out: Biological Assay 2 IC50 (nM) Akt2 WM115. The method in brief:
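Readout is a bead-proximity SureFire assay pairing a pThr308 Akt antibody with a total Akt2 antibody, lysate and beads incubated 2 h plus 2 h at room temperature in the dark. Before lysis, serum-starved WM115 cells received 100 nM insulin (10 min), then test compound (15 min, 0.3% DMSO); IC50 by 4-parameter equation.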

Assay [5] deals with T5, p-Akt3 in WM115 cells (Homo sapiens, UniProt Q9Y243).
T5 construct: SureFire assays to detect cellular p-Akt1, p-Akt2 and p-Akt3 levels in WM115 cells (Akt2/3) and LNCaP cells (Akt1); endogenous in cells; host or cells: WM115 (ECACC 91061232), insulin-stimulated
T5 sequence (Q9Y243 whole entry): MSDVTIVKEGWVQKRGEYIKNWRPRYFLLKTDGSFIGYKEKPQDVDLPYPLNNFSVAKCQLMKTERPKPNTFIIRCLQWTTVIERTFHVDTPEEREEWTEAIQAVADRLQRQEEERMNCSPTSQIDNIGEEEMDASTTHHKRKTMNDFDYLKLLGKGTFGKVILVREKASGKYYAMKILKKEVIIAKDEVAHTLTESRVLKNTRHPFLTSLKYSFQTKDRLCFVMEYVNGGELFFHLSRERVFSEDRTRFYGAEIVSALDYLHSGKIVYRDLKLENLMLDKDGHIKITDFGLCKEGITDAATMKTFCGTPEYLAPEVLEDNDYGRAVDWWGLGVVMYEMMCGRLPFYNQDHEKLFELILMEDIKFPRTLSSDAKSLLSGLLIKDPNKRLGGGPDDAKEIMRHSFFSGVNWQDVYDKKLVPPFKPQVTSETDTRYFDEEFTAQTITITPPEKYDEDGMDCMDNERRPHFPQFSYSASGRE
Description: Phospho-Akt cellular SureFire assay, p-Akt3 in WM115 cells. The settings on record: insulin stimulated, read-out: Biological Assay 2 IC50 (nM) Akt3 WM115. In kind it is cell-based. The method in brief:
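pThr308-Akt3 in lysates was quantified by bead-proximity SureFire detection, pairing a phospho-specific antibody with a total Akt3 antibody. Before lysis, WM115 cells in 0.1% FBS medium were treated for 15 min at 37 °C with compound (final DMSO 0.3%), following a 10 min stimulation with 100 nM insulin. IC50 was obtained by 4-parameter fitting.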

T2 sequence (Q9Y243 whole entry): as above
T1 sequence (P31751 whole entry): as the sequence (P31751 whole entry) above
T3 sequence (P31749 whole entry): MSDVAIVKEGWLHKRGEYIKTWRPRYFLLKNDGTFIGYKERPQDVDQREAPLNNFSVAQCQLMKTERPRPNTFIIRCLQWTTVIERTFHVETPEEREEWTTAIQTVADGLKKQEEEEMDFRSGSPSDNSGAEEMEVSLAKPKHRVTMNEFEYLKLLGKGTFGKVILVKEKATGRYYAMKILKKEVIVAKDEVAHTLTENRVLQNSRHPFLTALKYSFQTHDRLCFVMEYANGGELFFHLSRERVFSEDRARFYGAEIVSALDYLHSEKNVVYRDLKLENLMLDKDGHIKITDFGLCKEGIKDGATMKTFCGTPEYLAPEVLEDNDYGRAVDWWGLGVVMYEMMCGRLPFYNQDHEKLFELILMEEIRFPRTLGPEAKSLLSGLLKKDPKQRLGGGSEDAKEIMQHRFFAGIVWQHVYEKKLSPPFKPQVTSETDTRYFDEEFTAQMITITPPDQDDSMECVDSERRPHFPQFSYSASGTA

By IC50 is commonly meant the concentration needed to halve the response being measured. Regarding `COCCN(C)[C@H]1CC[C@H](CC(=O)Nc2cnc(-c3ccc(C4(N)CCC4)cc3)c(-c3ccsc3)c2)CC1` [Example 39, N-(6-(4-(1-aminocyclobutyl)phenyl)-5-(thiophen-3-yl)pyridin-3-yl)-2-(trans-4-((2-methoxyethyl)(methyl)amino)cyclohexyl)acetamide], the IC50 in assay [1] was 3100 nM; in assay [2], 2300 nM; in assay [3], greater than 14000 nM; in assay [4] it was 4200 nM; in assay [5], 180 nM.
The matching figures for `NC1(c2ccc(-c3ncc(NC(=O)C[C@H]4CC[C@H](N5CCCC5=O)CC4)cc3-c3ccsc3)cc2)CCC1` [Example 48, N-(6-(4-(1-aminocyclobutyl)phenyl)-5-(thiophen-3-yl)pyridin-3-yl)-2-(trans-4-(2-oxopyrrolidin-1-yl)cyclohexyl)acetamide]: 910 nM, 240 nM, greater than 27000 nM, 2700 nM and 110 nM.
The matching figures for `COC(=O)N(C)[C@H]1CC[C@H](CC(=O)Nc2cc(-c3ccsc3)c(-c3ccc(C4(N)CCC4)cc3)nn2)CC1` [Example 81, Methyl (trans-4-(2-((6-(4-(1-aminocyclobutyl)phenyl)-5-(thiophen-3-yl)pyridazin-3-yl)amino)-2-oxoethyl)cyclohexyl)(methyl)carbamate]: 1300 nM, 59 nM, greater than 27000 nM, 4300 nM and 120 nM.
The matching figures for `CC(C)C(=O)N(C)[C@H]1CC[C@H](CC(=O)Nc2cc(-c3ccccc3)c(-c3ccc([C@]4(N)C[C@](C)(O)C4)cc3)cn2)CC1` [Example 85, N-(trans-4-(2-((5-(4-(trans-1-amino-3-hydroxy-3-methylcyclobutyl)phenyl)-4-phenylpyridin-2-yl)amino)-2-oxoethyl)cyclohexyl)-N-methylisobutyramide]: 77 nM, 13 nM, 4700 nM, 600 nM and 20 nM.
With `COC(=O)N[C@H]1CC[C@H](CC(=O)Nc2cc(-c3ccccc3)c(-c3ccc([C@]4(N)C[C@](C)(O)C4)cc3)cn2)CC1` [Example 103, Methyl (trans-4-(2-((5-(4-(trans-1-amino-3-hydroxy-3-methylcyclobutyl)phenyl)-4-phenylpyridin-2-yl)amino)-2-oxoethyl)cyclohexyl)carbamate], the IC50 amounted to 78 nM in assay [1]; 11 nM in assay [2]; 2600 nM in assay [3]; 390 nM in assay [4]; 15 nM in assay [5].
As for `CCC(=O)N(C)[C@H]1CC[C@H](CC(=O)Nc2cc(-c3ccsc3)c(-c3ccc([C@]4(N)C[C@](C)(O)C4)cc3)cn2)CC1` [Example 110, N-(trans-4-(2-((5-(4-(trans-1-amino-3-hydroxy-3-methylcyclobutyl)phenyl)-4-(thiophen-3-yl)pyridin-2-yl)amino)-2-oxoethyl)cyclohexyl)-N-methylpropionamide], the IC50 in assay [1] stood at 380 nM; in assay [2], 17 nM; in assay [3], 8800 nM; in assay [4] it was 1200 nM; in assay [5], 16 nM.
Taken in the same sequence, the figures for `COC(=O)N(C(C)C)[C@H]1CC[C@H](CC(=O)Nc2cnc(-c3ccc([C@]4(N)C[C@](C)(O)C4)cc3)c(-c3ccccc3)c2)CC1` [Example 121, Methyl (trans-4-(2-((6-(4-(trans-1-amino-3-hydroxy-3-methylcyclobutyl)phenyl)-5-phenylpyridin-3-yl)amino)-2-oxoethyl)cyclohexyl) (isopropyl)carbamate] were 160 nM, 7 nM, 1800 nM, 390 nM and 11 nM.
`CCCC(=O)N(C)[C@H]1CC[C@H](CC(=O)Nc2cnc(-c3ccc(C4(N)CC4)cc3)c(-c3ccccc3)c2)CC1` [Example A33, N-(trans-4-(2-((6-(4-(1-aminocyclopropyl)phenyl)-5-phenylpyridin-3-yl)amino)-2-oxoethyl)cyclohexyl)-N-methylbutyramide]: the IC50 was 380 nM in assay [1]; 98 nM in assay [2]; greater than 16000 nM in assay [3]; 2500 nM in assay [4]; 140 nM in assay [5].
`C[C@]1(O)C[C@@](N)(c2ccc(-c3cnc(NC(=O)C[C@H]4CC[C@H](N5CCOC5=O)CC4)cc3-c3ccccc3)cc2)C1` [Example A57, N-(5-(4-(trans-1-amino-3-hydroxy-3-methylcyclobutyl)phenyl)-4-phenylpyridin-2-yl)-2-(trans-4-(2-oxooxazolidin-3-yl)cyclohexyl)acetamide]: the IC50 was found to be 130 nM in assay [1]; 8 nM in assay [2]; 5800 nM in assay [3]; 360 nM in assay [4]; 17 nM in assay [5].
With `CC(=O)N(C)[C@H]1CC[C@H](CC(=O)Nc2cc(-c3ccccc3)c(-c3ccc([C@]4(N)C[C@](C)(O)C4)cc3)cn2)CC1` [Example A58, N-(5-(4-(trans-1-amino-3-hydroxy-3-methylcyclobutyl)phenyl)-4-phenylpyridin-2-yl)-2-(trans-4-(N-methylacetamido)cyclohexyl)acetamide], the IC50 in assay [1] amounted to 190 nM; in assay [2], 8 nM; in assay [3], 7900 nM; in assay [4], 480 nM; in assay [5], 11 nM.
For the compound `COC(=O)N(C)[C@H]1CC[C@H](CC(=O)Nc2cc(-c3ccccc3)c(-c3ccc([C@]4(N)C[C@H](F)C4)cc3)nn2)CC1` [Example A60, Methyl (trans-4-(2-((6-(4-(trans-1-amino-3-fluorocyclobutyl)phenyl)-5-phenylpyridazin-3-yl)amino)-2-oxoethyl)cyclohexyl)(methyl)carbamate], the IC50 in assay [1] is 630 nM; in assay [2] it was 22 nM; in assay [3] it was greater than 30000 nM; in assay [4], 15000 nM; in assay [5], 670 nM.
Regarding `COC(=O)N(C)[C@H]1CC[C@H](CC(=O)Nc2cnc(-c3ccc(C4(N)CCC4)cc3)c(-c3ccsc3)c2)CC1` [Example A68, Methyl (trans-4-(2-((6-(4-(1-aminocyclobutyl)phenyl)-5-(thiophen-3-yl)pyridin-3-yl)amino)-2-oxoethyl)cyclohexyl)(methyl)carbamate], the IC50 in assay [1] was 850 nM; in assay [2] it was 40 nM; in assay [3], greater than 30000 nM; in assay [4], 7400 nM; in assay [5], 250 nM.

For the origin of these results see patent US10336702B2, “Pharmaceutically active compounds” (BERGENBIO ASA, priority 2015, dated 2019).
